The nature of series [1]: Approximate solubility in solvents at 25° C. and 50° C. (visual observation). It counts as physicochemical. As to conditions: thermodynamic from solid, 25° C., target conc. = 250 mg/mL. Here is the method: Max. volume of each solvent added was 1 mL. Approximate solubility was determined by visual observation.
Max volume of each solvent added was 1 mL. Approximate solubility was determined by visual observation.

The next series has as its target T1, CRBN-DDB1 (Homo sapiens, UniProt Q96SW2).
T1 construct: His; purchased Wuxi Biortus Biosciences Co., Ltd
The series is described as follows: Fluorescence polarization competition binding assay, CRBN-DDB1. Particulars: FP competition. Here is the method: Fluorescence polarization (FP) competition experiments were used to determine the binding affinity of Compound 1 to purified CRBN-DDB1 protein.
Human Histidine (His) CRBN and non-tag DDB1 (CRBN-DDB1 (5.64 mg/mL in 25 mM HEPES, 300 mM NaCl, 1 mM TCEP, pH 7.5)) was purchased from Wuxi Biortus Biosciences Co., Ltd. (Jiangsu, China) and stored at −80° C. until use. Potent CRBN-DDB1 ligand was chemically labeled with the commercially available fluorophore Alexa Fluor™ 647 (Invitrogen, Waltham, MA, USA) following manufacturer's instructions. Fluorescently labelled CRBN-DDB1 binding compound at 0.3 mM in DMSO was stored at −20° C.
The determination of the binding constant (Kd) of Compound 1 to CRBN-DDB1 was carried out using an established, sensitive and quantitative in vitro fluorescence polarization (FP) binding assay (Nasir & Jolley, 1999). […]
A 20 μL mixture containing 150 nM CRBN-DDB1 and 5 nM probe dye in 50 mM HEPES, pH 7.4, 200 mM NaCl, 1 mM TCEP and 0.05% Pluronic Acid F-127 was added to wells containing compound and incubated at room temperature for 1.5 hours. […] Matching control plates excluding CRBN-DDB1 were used to correct for background fluorescence (Shapiro et al., 2009). Plates were read on an EnVision® multimode plate reader (Catalog No. 2104-0010, Perkin Elmer Inc., Dumfries, VA, USA) with Cy5 polarization filters and mirror. […]

Series [2] in a line: Crystallization under nitrogen flow by fast evaporation. The series is classed as physicochemical. As for the experimental part:
Based on approximate solubility results, about 10 mg of Compound 1 free form Pattern E was dissolved in suitable amount of solvents. […] Solid residues were examined for their polymorphic form.

Molecules are shown by their SMILES. Converted amounts (≈) assume the structure as drawn. “And” between values parts separate entries of the source, which are not always exact repeats. Equal entries are not always repeated. Where two headings read alike, the source gives them in different places. A value given as a limit tells only on which side of the number the result lay.

The Solubility is the dissolved amount per volume that the medium holds. In general, Kd refers to the constant that tells how readily two partners part at equilibrium. In the case of `COc1cc(-c2cn(C)c(=O)c(C)c2C)cc(OC)c1CN1CC[C@H](N2CCN(c3ccc(N[C@H]4CCC(=O)NC4=O)cc3F)CC2)C(F)(F)C1` [Compound 1, (S)-3-((4-(4-((S)-1-(2,6-dimethoxy-4-(1,4,5-trimethyl-6-oxo-1,6-dihydropyridin-3-yl)benzyl)-3,3-difluoropiperidin-4-yl)piperazin-1-yl)-3-fluorophenyl)amino)-piperidine-2,6-dione], the Solubility in series [1] (organic solvent or mixture, Acetone) was 17000 to 25000 µg/mL (≈ 23.9 to 35.2 mM); in series [1] (organic solvent or mixture, Acetonitrile), 6000 to 7000 µg/mL (≈ 8.44 to 9.85 mM); in series [1] (organic solvent or mixture, Ethanol) it was 5000 to 6000 µg/mL (≈ 7.03 to 8.44 mM); in series [1] (organic solvent or mixture, Ethyl acetate) it was 5000 to 6000 µg/mL (≈ 7.03 to 8.44 mM); in series [1] (organic solvent or mixture, Heptane) it was less than 5000 µg/mL; in series [1] (organic solvent or mixture, MTBE (Methyl tert-butyl ether)), less than 5000 µg/mL. For the same compound, the Solubility in series [1] (organic solvent or mixture, Methanol) was 10000 to 17000 µg/mL (≈ 14.1 to 23.9 mM); in series [1] (organic solvent or mixture, Methanol/water (v:v = 95:5)), 8000 to 13000 µg/mL (≈ 11.3 to 18.3 mM); in series [1] (organic solvent or mixture, THF (Tetrahydrofuran)), more than 250000 µg/mL; in series [1] (Water) it was less than 5000 µg/mL. The Kd was 2100 nM and 1600 nM and 2300 nM on CRBN-DDB1 (each occasion in duplicate, read-out: Kd, individual test occasion); 2000 nM at CRBN-DDB1 (n=3, read-out: Kd (geometric mean), binding to CRBN-DDB1). Besides, the Comments result in series [2] (fast evaporation under nitrogen flow, 1,4-dioxane) was “Gel-like sample”; in series [2] (fast evaporation under nitrogen flow, 2-MeTHF), “Gel-like sample”; in series [2] (fast evaporation under nitrogen flow, Acetone), “Gel-like sample”; in series [2] (fast evaporation under nitrogen flow, DCM), “Gel-like sample”; in series [2] (fast evaporation under nitrogen flow, Ethanol), “Gel-like sample”; in series [2] (fast evaporation under nitrogen flow, Ethyl acetate), “Gel-like sample”. Moreover, in series [2] (fast evaporation under nitrogen flow, THF), the Comments result is listed as “Gel-like sample”. Also, the XRPD entry in series [2] (fast evaporation under nitrogen flow, Acetonitrile) is given as “Pattern B”.

Values taken from patent US20240245677A1, “SELECTED COMPOUNDS FOR TARGETED DEGRADATION OF BRD9” (C4 THERAPEUTICS, INC., priority 2021, published 2024).
